ChEMBL document CHEMBL1125697, “Synthesis and pharmacological examination of 1-(3-methoxy-4-methylphenyl)-2-aminopropane and 5-methoxy-6-methyl-2-aminoindan: similarities to 3,4-(methylenedioxy)methamphetamine (MDMA)” (J Med Chem, 1991)
Where “and” joins values, the source holds several entries; their conditions need not be identical. Equal entries are not always repeated.

Key:
Rattus norvegicus [1] = species on record: Rattus norvegicus; experiment: Effective dose was evaluated for drug discrimination in I-trained rats; assay type: functional
Rattus norvegicus [2] = experiment: Momoamine and metabolic levels observed 1 week following acute dosing against at a dose of 20 mg/kg Frontal cortex DOPAC; assay type: ADME, organism-based; set-up: dose 20 mg/kg; conditions: in vivo, 168 h
Rattus norvegicus [3] = experiment: Momoamine and metabolic levels observed 1 week following acute dosing against at a dose of 20 mg/kg Frontal cortex HVA; assay type: ADME, organism-based; set-up: dose 20 mg/kg; conditions: in vivo, 168 h
Rattus norvegicus [4] = experiment: Momoamine and metabolic levels observed 1 week following acute dosing against at a dose of 20 mg/kg Frontal cortex NE; assay type: ADME, organism-based; set-up: dose 20 mg/kg; conditions: in vivo, 168 h
Rattus norvegicus [5] = experiment: Momoamine and metabolic levels observed 1 week following acute dosing against at a dose of 20 mg/kg Frontal cortex DA; assay type: ADME, organism-based; set-up: dose 20 mg/kg; conditions: in vivo, 168 h
Rattus norvegicus [6] = experiment: Momoamine and metabolic levels observed 1 week following acute dosing against at a dose of 10 mg/kg Hippocampus 5-HT; assay type: ADME, organism-based; set-up: dose 10 mg/kg; conditions: in vivo, 168 h
Rattus norvegicus [7] = experiment: Momoamine and metabolic levels observed 1 week following acute dosing against at a dose of 10 mg/kg Hippocampus NE; assay type: ADME, organism-based; set-up: dose 10 mg/kg; conditions: in vivo, 168 h
Rattus norvegicus [8] = experiment: Momoamine and metabolic levels observed 1 week following acute dosing at a dose of 10 mg/kg Frontal cortex 5-HIAA; assay type: ADME, organism-based; set-up: dose 10 mg/kg; conditions: in vivo, 168 h
Rattus norvegicus [9] = experiment: Momoamine and metabolic levels observed 1 week following acute dosing at a dose of 10 mg/kg Frontal cortex 5-HT; assay type: ADME, organism-based; set-up: dose 10 mg/kg; conditions: in vivo, 168 h
Rattus norvegicus [10] = experiment: Momoamine and metabolic levels observed 1 week following acute dosing at a dose of 10 mg/kg Frontal cortex DA; assay type: ADME, organism-based; set-up: dose 10 mg/kg; conditions: in vivo, 168 h
Rattus norvegicus [11] = experiment: Momoamine and metabolic levels observed 1 week following acute dosing at a dose of 10 mg/kg Frontal cortex DOPAC; assay type: ADME, organism-based; set-up: dose 10 mg/kg; conditions: in vivo, 168 h
Rattus norvegicus [12] = experiment: Momoamine and metabolic levels observed 1 week following acute dosing against at a dose of 20 mg/kg Hippocampus NE; assay type: ADME, organism-based; set-up: dose 20 mg/kg; conditions: in vivo, 168 h
Rattus norvegicus [13] = experiment: Momoamine and metabolic levels observed 2 weeks following sub-acute dosing against Frontal cortex 5-HIAA; assay type: ADME, organism-based; conditions: in vivo, 336 h
Rattus norvegicus [14] = experiment: Momoamine and metabolic levels observed 2 weeks following sub-acute dosing against Frontal cortex 5-HT; assay type: ADME, organism-based; conditions: in vivo, 336 h
Rattus norvegicus [15] = experiment: Momoamine and metabolic levels observed 2 weeks following sub-acute dosing against Frontal cortex DA; assay type: ADME, organism-based; conditions: in vivo, 336 h
Rattus norvegicus [16] = experiment: Momoamine and metabolic levels observed 2 weeks following sub-acute dosing against Frontal cortex DOPAC; assay type: ADME, organism-based; conditions: in vivo, 336 h
Rattus norvegicus [17] = experiment: Momoamine and metabolic levels observed 2 weeks following sub-acute dosing against Frontal cortex NE; assay type: ADME, organism-based; conditions: in vivo, 336 h
Rattus norvegicus [18] = experiment: Momoamine and metabolic levels observed 2 weeks following sub-acute dosing against Hippocampus 5-HIAA; assay type: ADME, organism-based; conditions: in vivo, 336 h
Rattus norvegicus [19] = experiment: Momoamine and metabolic levels observed 2 weeks following sub-acute dosing against Hippocampus 5-HT; assay type: ADME, organism-based; conditions: in vivo, 336 h
Rattus norvegicus [20] = experiment: Momoamine and metabolic levels observed 1 week following acute dosing against at a dose of 20 mg/kg Frontal cortex 5-HIAA; assay type: ADME, organism-based; set-up: dose 20 mg/kg; conditions: in vivo, 168 h
Rattus norvegicus [21] = experiment: Momoamine and metabolic levels observed 1 week following acute dosing against at a dose of 20 mg/kg Frontal cortex 5-HT; assay type: ADME, organism-based; set-up: dose 20 mg/kg; conditions: in vivo, 168 h
Rattus norvegicus [22] = experiment: Momoamine and metabolic levels observed 1 week following acute dosing at a dose of 10 mg/kg Frontal cortex HVA; assay type: ADME, organism-based; set-up: dose 10 mg/kg; conditions: in vivo, 168 h
Rattus norvegicus [23] = experiment: Momoamine and metabolic levels observed 1 week following acute dosing at a dose of 10 mg/kg Frontal cortex NE; assay type: ADME, organism-based; set-up: dose 10 mg/kg; conditions: in vivo, 168 h
Rattus norvegicus [24] = experiment: Momoamine and metabolic levels observed 1 week following acute dosing at a dose of 10 mg/kg Hippocampus 5-HIAA; assay type: ADME, organism-based; set-up: dose 10 mg/kg; conditions: in vivo, 168 h
Rattus norvegicus [25] = experiment: Momoamine and metabolic levels observed at 3 hr postdrug against at a dose of 20 mg/kg Hippocampus NE; assay type: ADME, organism-based; set-up: dose 20 mg/kg; conditions: in vivo
Rattus norvegicus [26] = experiment: Momoamine and metabolic levels observed at 3 hr postdrug against at a dose of 20 mg/kg Frontal cortex 5-HT; assay type: ADME, organism-based; set-up: dose 20 mg/kg; conditions: in vivo
Rattus norvegicus [27] = experiment: Momoamine and metabolic levels observed at 3 hr postdrug against at a dose of 20 mg/kg Frontal cortex DA; assay type: ADME, organism-based; set-up: dose 20 mg/kg; conditions: in vivo
Rattus norvegicus [28] = experiment: Momoamine and metabolic levels observed at 3 h postdrug against at a dose of 20 mg/kg Frontal cortex DOPAC; assay type: ADME, organism-based; set-up: dose 20 mg/kg; conditions: in vivo
Rattus norvegicus [29] = experiment: Momoamine and metabolic levels observed at 3 hr postdrug against at a dose of 20 mg/kg Frontal cortex HVA; assay type: ADME, organism-based; set-up: dose 20 mg/kg; conditions: in vivo
Rattus norvegicus [30] = experiment: Momoamine and metabolic levels observed at 3 hr postdrug against at a dose of 20 mg/kg Frontal cortex NE; assay type: ADME, organism-based; set-up: dose 20 mg/kg; conditions: in vivo
Rattus norvegicus [31] = experiment: Momoamine and metabolic levels observed at 3 hr postdrug against at a dose of 20 mg/kg Hippocampus 5-HIAA; assay type: ADME, organism-based; set-up: dose 20 mg/kg; conditions: in vivo
Rattus norvegicus [32] = experiment: Momoamine and metabolic levels observed 2 weeks following sub-acute dosing against Hippocampus NE; assay type: ADME, organism-based; conditions: in vivo, 336 h
Rattus norvegicus [33] = experiment: Momoamine and metabolic levels observed 1 week following acute dosing against at a dose of 20 mg/kg Hippocampus 5-HIAA; assay type: ADME, organism-based; set-up: dose 20 mg/kg; conditions: in vivo, 168 h
Rattus norvegicus [34] = experiment: Momoamine and metabolic levels observed at 3 hr postdrug against at a dose of 20 mg/kg Frontal cortex 5-HIAA; assay type: ADME, organism-based; set-up: dose 20 mg/kg; conditions: in vivo
Rattus norvegicus [35] = experiment: Momoamine and metabolic levels observed 1 week following acute dosing against at a dose of 20 mg/kg Hippocampus 5-HT; assay type: ADME, organism-based; set-up: dose 20 mg/kg; conditions: in vivo, 168 h
Rattus norvegicus [36] = experiment: Effective dose was evaluated for drug discrimination in I-trained rats, when given at a dose of 0.25 mg/kg; assay type: functional; conditions: Rattus norvegicus; read-out: ED50
Rattus norvegicus [37] = experiment: Effective dose was evaluated for drug discrimination in I-trained rats, when given at a dose of 1.16 micro mol/kg; assay type: functional
Rattus norvegicus [38] = experiment: Effective dose was evaluated for drug discrimination in S-trained rats, when given at a dose of 0.25 umol/kg; assay type: functional
Rattus norvegicus [39] = experiment: Effective dose was evaluated for drug discrimination in S-trained rats, when given at a dose of 0.25 mg/kg; assay type: functional
Rattus norvegicus [40] = species on record: Rattus norvegicus; experiment: Compound was evaluated for the uptake inhibition of [3H]-5-HT in rats; assay type: functional
Rattus norvegicus [41] = experiment: Percentage of non disrupted rats that selected the drug lever, when given at a dose of 0.25 mg/kg; assay type: functional
Rattus norvegicus [42] = experiment: Percentage of non disrupted rats that selected the drug lever, when given at a dose of 0.25 mg/kg in LSD-Trained rats; assay type: functional
Rattus norvegicus [43] = experiment: Percentage of non disrupted rats that selected the drug lever, when given at a dose of 0.25 mg/kg in S-Amphetamine-Trained rats; assay type: functional
Rattus norvegicus [44] = experiment: Percentage of non disrupted rats that selected the drug lever, when given at a dose of 0.50 mg/kg in LSD-Trained rats; assay type: functional; conditions: dose 0.5 mg/kg
Rattus norvegicus [45] = experiment: Percentage of non disrupted rats that selected the drug lever, when given at a dose of 0.5 mg/kg; assay type: functional
Rattus norvegicus [46] = experiment: Percentage of non disrupted rats that selected the drug lever, when given at a dose of 1.00 mg/kg in S-Amphetamine-Trained rats; assay type: functional
Rattus norvegicus [47] = experiment: Percentage of non disrupted rats that selected the drug lever, when given at a dose of 2.00 mg/kg; assay type: functional
Rattus norvegicus [48] = experiment: Percentage of non disrupted rats that selected the drug lever, when given at a dose of 2.00 mg/kg in LSD-Trained rats; assay type: functional
Rattus norvegicus [49] = experiment: Percentage of non disrupted rats that selected the drug lever, when given at a dose of 0.5 mg/kg in S-Amphetamine-Trained rats; assay type: functional
Rattus norvegicus [50] = experiment: Percentage of non disrupted rats that selected the drug lever, when given at a dose of 1.00 mg/kg; assay type: functional
[51] = biological target: Sodium-dependent serotonin transporter (Rattus norvegicus) (UniProt P31652); experiment: Number of uptake sites for [3H]paroxetine receptor binding after sub-acute dosing against Frontal cortex; assay type: tissue-based
[52] = biological target: Sodium-dependent serotonin transporter (Rattus norvegicus) (UniProt P31652); experiment: Number of uptake sites for [3H]paroxetine receptor binding after sub-acute dosing against Hippocampus
Rattus norvegicus [53] = experiment: Momoamine and metabolic levels observed 2 weeks following sub-acute dosing against Frontal cortex HVA; assay type: ADME, organism-based; conditions: in vivo, 336 h

Sodium-dependent serotonin transporter (Rattus norvegicus), sequence (P31652 whole entry): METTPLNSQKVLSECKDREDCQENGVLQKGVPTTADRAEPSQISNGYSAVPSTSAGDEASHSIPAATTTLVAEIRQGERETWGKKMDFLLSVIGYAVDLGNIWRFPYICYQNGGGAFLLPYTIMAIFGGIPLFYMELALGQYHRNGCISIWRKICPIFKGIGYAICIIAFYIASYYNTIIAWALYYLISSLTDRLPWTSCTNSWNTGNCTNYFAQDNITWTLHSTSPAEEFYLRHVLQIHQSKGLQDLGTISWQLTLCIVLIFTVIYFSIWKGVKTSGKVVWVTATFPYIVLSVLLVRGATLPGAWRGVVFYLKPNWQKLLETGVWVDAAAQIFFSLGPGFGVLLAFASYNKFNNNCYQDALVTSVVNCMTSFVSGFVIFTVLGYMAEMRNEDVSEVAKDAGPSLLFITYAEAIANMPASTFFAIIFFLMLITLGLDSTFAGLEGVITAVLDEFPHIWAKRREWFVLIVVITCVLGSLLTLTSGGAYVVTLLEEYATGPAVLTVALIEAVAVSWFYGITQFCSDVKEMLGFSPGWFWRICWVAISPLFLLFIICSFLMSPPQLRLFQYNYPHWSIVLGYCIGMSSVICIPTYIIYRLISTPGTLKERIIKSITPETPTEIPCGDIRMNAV

**Q.** `C[C@H](N)Cc1ccccc1` [DEXTROAMPHETAMINE] was tested. Which ED50 (Rattus norvegicus [1]) did it give?
**A.** 0.31 mg/kg and 1.69 µmol/kg

**Q.** Which results are given for `COc1cc(CC(C)N)ccc1C` (stereo not drawn)?
**A.** Metabolite level (Rattus norvegicus [2]): 45; Metabolite level (Rattus norvegicus [3]): 85; Metabolite level (Rattus norvegicus [4]): 487; Metabolite level (Rattus norvegicus [5]): 86; Metabolite level (Rattus norvegicus [6]): 255; Metabolite level (Rattus norvegicus [7]): 620; Metabolite level (Rattus norvegicus [8]): 233; Metabolite level (Rattus norvegicus [9]): 281; Metabolite level (Rattus norvegicus [10]): 88; Metabolite level (Rattus norvegicus [11]): 39; Metabolite level (Rattus norvegicus [12]): 578; Metabolite level (Rattus norvegicus [13]): 253; Metabolite level (Rattus norvegicus [14]): 411; Metabolite level (Rattus norvegicus [15]): 83; Metabolite level (Rattus norvegicus [16]): 74; Metabolite level (Rattus norvegicus [17]): 573; Metabolite level (Rattus norvegicus [18]): 503; Metabolite level (Rattus norvegicus [19]): 392; Metabolite level (Rattus norvegicus [20]): 229; Metabolite level (Rattus norvegicus [21]): 316; Metabolite level (Rattus norvegicus [22]): 70; Metabolite level (Rattus norvegicus [23]): 394; Metabolite level (Rattus norvegicus [24]): 460; Metabolite level (Rattus norvegicus [25]): 641; Metabolite level (Rattus norvegicus [26]): 212; Metabolite level (Rattus norvegicus [27]): 120; Metabolite level (Rattus norvegicus [28]): 46; Metabolite level (Rattus norvegicus [29]): 138; Metabolite level (Rattus norvegicus [30]): 585; Metabolite level (Rattus norvegicus [31]): 260; Metabolite level (Rattus norvegicus [32]): 724; Metabolite level (Rattus norvegicus [33]): 430; Metabolite level (Rattus norvegicus [34]): 139; Metabolite level (Rattus norvegicus [35]): 431; ED50 (Rattus norvegicus [36]): 0.59 mg/kg; ED50 (Rattus norvegicus [37]): 2.74 µmol/kg; ED50 (Rattus norvegicus [38]): 2.16 µmol/kg; ED50 (Rattus norvegicus [39]): 0.47 mg/kg; IC50 (Rattus norvegicus [40]): 136 nM; SDL (Rattus norvegicus [41]): 11%; SDL (Rattus norvegicus [42]): 0%; SDL (Rattus norvegicus [43]): 0%; SDL (Rattus norvegicus [44]): 38%; SDL (Rattus norvegicus [45]): 50%; SDL (Rattus norvegicus [46]): 0%; SDL (Rattus norvegicus [47]): 100%; SDL (Rattus norvegicus [48]): 75%; SDL (Rattus norvegicus [49]): 0%; SDL (Rattus norvegicus [50]): 63%; No. of uptake sites [51]: 12.3; No. of uptake sites [52]: 14.9; Metabolite level (Rattus norvegicus [53]): 62
